# Measured values reported in ChEMBL document CHEMBL1126480, “Peptide azoles: A new class of biologically-active dipeptide mmetics” (Bioorg Med Chem Lett, 1993).
# Molecular target: T1, Substance-P receptor (Cavia porcellus, UniProt P30547)
# Assay: The compound was evaluated in vitro for the antagonistic activity against Tachykinin receptor 1 in guinea pig myenteric plexus longitudinal muscle strips.
# Type: functional
# Details: read-out: pA2 (converted)
# T1 sequence (P30547 whole entry): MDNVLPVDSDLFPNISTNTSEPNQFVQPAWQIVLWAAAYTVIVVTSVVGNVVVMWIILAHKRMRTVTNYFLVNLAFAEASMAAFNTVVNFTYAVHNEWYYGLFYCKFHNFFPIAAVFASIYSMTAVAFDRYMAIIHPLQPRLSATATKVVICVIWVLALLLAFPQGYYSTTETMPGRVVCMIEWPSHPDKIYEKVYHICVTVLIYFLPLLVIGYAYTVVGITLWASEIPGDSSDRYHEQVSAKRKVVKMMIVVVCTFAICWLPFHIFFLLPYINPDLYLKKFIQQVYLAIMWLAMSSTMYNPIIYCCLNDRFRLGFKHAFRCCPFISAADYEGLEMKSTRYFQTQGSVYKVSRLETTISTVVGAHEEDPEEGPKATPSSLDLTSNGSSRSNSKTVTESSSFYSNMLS
row,Kb [nM],Molecule
1,126,CC(C)C[C@H](NC(=O)[C@@H](Cc1c[nH]c2ccccc12)NC(=O)[C@H](Cc1ccccc1)c1cnc([C@H](Cc2c[nH]c3ccccc23)NC(=O)[C@@H]2CCCN2)s1)C(=O)N[C@@H](Cc1ccccc1)C(N)=O

# Molecular target: T1, Substance-P receptor
# Assay: The compound was evaluated in vitro for the antagonistic activity against substance P receptor in guinea pig myenteric plexus longitudinal muscle strips.
# Type: functional
# Details: read-out: pA2 (converted)
row,Kb [nM],Molecule
1,200,CC(C)C[C@H](NC(=O)[C@@H](Cc1c[nH]c2ccccc12)NC(=O)[C@H](Cc1ccccc1)c1c[nH]c([C@@H](Cc2c[nH]c3ccccc23)NC(=O)[C@@H]2CCCN2)n1)C(=O)N[C@@H](Cc1ccccc1)C(N)=O
2,398,H-PWFWLF-NH2

# The next lines start with the molecule.
row,Molecule,Kb [nM]
1,CC(C)C[C@H](NC(=O)[C@@H](Cc1c[nH]c2ccccc12)NC(=O)[C@H](Cc1ccccc1)c1cnc([C@@H](Cc2c[nH]c3ccccc23)NC(=O)[C@@H]2CCCN2)s1)C(=O)N[C@@H](Cc1ccccc1)C(N)=O,39.8
2,CC(C)C[C@H](NC(=O)[C@@H](Cc1c[nH]c2ccccc12)c1cnc(C(=O)[C@H](Cc2ccccc2)NC(=O)[C@@H](Cc2c[nH]c3ccccc23)NC(=O)[C@@H]2CCCN2)s1)C(=O)N[C@@H](Cc1ccccc1)C(N)=O,1260
3,CC(C)C[C@H](NC(=O)[C@@H](Cc1c[nH]c2ccccc12)NC(=O)[C@H](Cc1ccccc1)c1cnc([C@@H](Cc2c[nH]c3ccccc23)NC(=O)[C@@H]2CCCN2)o1)C(=O)N[C@@H](Cc1ccccc1)C(N)=O,501
